For `COc1cc(C(=O)O)cc(OC)c1O`, the solubility (mole fraction) (in ethanol, 283.15 K) was 0.0115, the solubility (mole fraction) (in ethanol, 288.15 K) was 0.0125 and the solubility (mole fraction) (in ethanol, 293.15 K) was 0.0145. For the same compound, the solubility (mole fraction) (in ethanol, 298.15 K) was 0.0169, the solubility (mole fraction) (in ethanol, 303.15 K) was 0.0188 and the solubility (mole fraction) (in ethanol, 308.15 K) was 0.0217. The solubility (mole fraction) (in ethanol, 313.15 K) was 0.0251, the solubility (mole fraction) (in ethanol, 318.15 K) was 0.0279 and the solubility (mole fraction) (in ethanol, 323.15 K) was 0.0316. For the same compound, the solubility (mole fraction) (in ethyl acetate, 283.15 K) was 0.0007, the solubility (mole fraction) (in ethyl acetate, 288.15 K) was 0.00084 and the solubility (mole fraction) (in ethyl acetate, 293.15 K) was 0.001. The solubility (mole fraction) (in ethyl acetate, 298.15 K) was 0.00125, the solubility (mole fraction) (in ethyl acetate, 303.15 K) was 0.00149 and the solubility (mole fraction) (in ethyl acetate, 308.15 K) was 0.0018. It also gave a solubility (mole fraction) (in ethyl acetate, 313.15 K) of 0.00221, a solubility (mole fraction) (in ethyl acetate, 318.15 K) of 0.0026 and a solubility (mole fraction) (in ethyl acetate, 323.15 K) of 0.00323. For the same compound, the solubility (mole fraction) (in ethylene glycol, 283.15 K) was 0.00812, the solubility (mole fraction) (in ethylene glycol, 288.15 K) was 0.00951 and the solubility (mole fraction) (in ethylene glycol, 293.15 K) was 0.0113. For the same compound, the solubility (mole fraction) (in ethylene glycol, 298.15 K) was 0.0124, the solubility (mole fraction) (in ethylene glycol, 303.15 K) was 0.0146 and the solubility (mole fraction) (in ethylene glycol, 308.15 K) was 0.017. The solubility (mole fraction) (in ethylene glycol, 313.15 K) was 0.0203, the solubility (mole fraction) (in ethylene glycol, 318.15 K) was 0.0235 and the solubility (mole fraction) (in ethylene glycol, 323.15 K) was 0.0269. It also gave a solubility (mole fraction) (in isopropanol, 283.15 K) of 0.00401, a solubility (mole fraction) (in isopropanol, 288.15 K) of 0.00455 and a solubility (mole fraction) (in isopropanol, 293.15 K) of 0.00545. The solubility (mole fraction) (in isopropanol, 298.15 K) was 0.00627, the solubility (mole fraction) (in isopropanol, 303.15 K) was 0.00752 and the solubility (mole fraction) (in isopropanol, 308.15 K) was 0.00853. The solubility (mole fraction) (in isopropanol, 313.15 K) was 0.00971, the solubility (mole fraction) (in isopropanol, 318.15 K) was 0.0115 and the solubility (mole fraction) (in isopropanol, 323.15 K) was 0.0131. For the same compound, the solubility (mole fraction) (in methanol, 283.15 K) was 0.0137, the solubility (mole fraction) (in methanol, 288.15 K) was 0.015 and the solubility (mole fraction) (in methanol, 293.15 K) was 0.0173. It also gave a solubility (mole fraction) (in methanol, 298.15 K) of 0.019, a solubility (mole fraction) (in methanol, 303.15 K) of 0.0209 and a solubility (mole fraction) (in methanol, 308.15 K) of 0.0238. For the same compound, the solubility (mole fraction) (in methanol, 313.15 K) was 0.0271, the solubility (mole fraction) (in methanol, 318.15 K) was 0.0298 and the solubility (mole fraction) (in methanol, 323.15 K) was 0.0331. It also gave a solubility (mole fraction) (in n-butanol, 283.15 K) of 0.0032, a solubility (mole fraction) (in n-butanol, 288.15 K) of 0.00375 and a solubility (mole fraction) (in n-butanol, 293.15 K) of 0.00441. It also gave a solubility (mole fraction) (in n-butanol, 298.15 K) of 0.00518, a solubility (mole fraction) (in n-butanol, 303.15 K) of 0.00624 and a solubility (mole fraction) (in n-butanol, 308.15 K) of 0.00735. For the same compound, the solubility (mole fraction) (in n-butanol, 313.15 K) was 0.00832, the solubility (mole fraction) (in n-butanol, 318.15 K) was 0.0098 and the solubility (mole fraction) (in n-butanol, 323.15 K) was 0.0116. The solubility (mole fraction) (in n-hexanol, 283.15 K) was 0.00241, the solubility (mole fraction) (in n-hexanol, 288.15 K) was 0.00281 and the solubility (mole fraction) (in n-hexanol, 293.15 K) was 0.0033. For the same compound, the solubility (mole fraction) (in n-hexanol, 298.15 K) was 0.0042, the solubility (mole fraction) (in n-hexanol, 303.15 K) was 0.0048 and the solubility (mole fraction) (in n-hexanol, 308.15 K) was 0.0058. The solubility (mole fraction) (in n-hexanol, 313.15 K) was 0.00702, the solubility (mole fraction) (in n-hexanol, 318.15 K) was 0.00852 and the solubility (mole fraction) (in n-hexanol, 323.15 K) was 0.0101. It also gave a solubility (mole fraction) (in sec-butanol, 283.15 K) of 0.00188, a solubility (mole fraction) (in sec-butanol, 288.15 K) of 0.00223 and a solubility (mole fraction) (in sec-butanol, 293.15 K) of 0.0029. It also gave a solubility (mole fraction) (in sec-butanol, 298.15 K) of 0.00357, a solubility (mole fraction) (in sec-butanol, 303.15 K) of 0.00432 and a solubility (mole fraction) (in sec-butanol, 308.15 K) of 0.00503. For the same compound, the solubility (mole fraction) (in sec-butanol, 313.15 K) was 0.00604, the solubility (mole fraction) (in sec-butanol, 318.15 K) was 0.00737 and the solubility (mole fraction) (in sec-butanol, 323.15 K) was 0.00921.
